Experimental data taken from patent publication US20240382498A1, “NOVEL INHIBITOR OF HYPE-MEDIATED AMPYLATION” (Purdue Research Foundation, priority 2023, published 2024).

How the values were obtained:
[1] = test system: HeLa cells; assay: MTT cell viability assay, HeLa; assay type: cell-based, human; details: 48 hr
Experimental: (§1) The cell lines were procured from ATCC (American Type Culture Collection) and cultured in DMEM (Dulbecco's Modified Eagle Medium) supplemented with 10% FBS (fetal bovine serum) without antibiotics. Cells were grown and maintained in a humidified incubator at 37° C. with 5% CO2. For the MTT assay, cells were trypsinized and harvested at ˜80-90% confluency and seeded in 96 well plates at a density of 1×10^4 cells per well. The seeded cells were incubated overnight and treated with 1 μM, 3 μM, 5 μM, 7 μM, 10 μM, 20 μM, 30 μM or 50 μM (final concentration) of DMSO-dissolved compound for 48 hr. To rule out vehicle induced toxicity, only 0.5% of final DMSO concentration was added to the cells. Post-incubation, the compound treatment was removed and replaced with 0.5 mg/ml (final concentration) of freshly prepared MTT solution. After incubating for 3.5 hr at 37° C., 5% CO2 humidified incubator, MTT was carefully removed without aspirating the formazan crystals and replaced with equivalent volume of DMSO to dissolve the formazan crystals. The plates were then read using a multi-plate reader at 570 nm. The absorbance was recorded and % viability was calculated according to the following equation:
(§2) [formula] • where, Abt is the absorbance of compound treated cells and Abc is the absorbance of control cells.

[2] = target: T1, E234G HYPE (Homo sapiens, UniProt Q9BVA6, E234G); assay: Radioactive in-gel autoAMPylation assay with E234G HYPE and α-32P-ATP; assay type: biochemical; details: 10 μM compound
T1 construct: Δ102 (aa 103-458) HYPE constructs (WT, E234G, and E234G/H363A); His6-SUMO (cleaved yes); made in house; host or cells: E. coli BL21-DE3-RILP
T1 sequence (Q9BVA6 103-458 E234G): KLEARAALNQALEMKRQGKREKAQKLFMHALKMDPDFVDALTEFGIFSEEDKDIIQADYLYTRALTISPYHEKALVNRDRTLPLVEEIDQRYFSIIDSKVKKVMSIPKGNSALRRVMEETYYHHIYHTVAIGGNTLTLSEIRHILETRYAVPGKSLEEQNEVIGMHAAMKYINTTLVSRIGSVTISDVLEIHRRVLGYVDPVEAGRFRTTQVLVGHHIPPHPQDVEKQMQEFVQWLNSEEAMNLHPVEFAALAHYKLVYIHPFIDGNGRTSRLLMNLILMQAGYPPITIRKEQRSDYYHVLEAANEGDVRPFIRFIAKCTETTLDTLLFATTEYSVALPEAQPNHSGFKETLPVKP
Experimental: (§3) 1 μM of HYPE (final concentration) and (where specified) 5 μM of T229A BiP (final concentration) were preincubated with 10 μM DMSO-dissolved compound (final concentration) or equivalent volume of 100% DMSO at room temperature for 10 min in HTS Buffer. Reactions were run for 10 min at 30° C. and began with the addition of 0.01 μCi/μL α-32P-ATP (final concentration). All reactions were performed according to our previously described protocol for in vitro radioactive AMPylation assays19. Where specified, 5 μM of T229A BiP (final concentration) was added to reactions before the addition of compound.

[3] = target: T2, E234G HYPE AMPylation of T229A BiP (Homo sapiens, UniProt Q9BVA6, E234G); assay: Fluorescence in-gel T229A BiP AMPylation assay with E234G HYPE and Fl-ATP; assay type: biochemical; details: 10 μM compound
T2 construct: Δ102 (aa 103-458) HYPE constructs (WT, E234G, and E234G/H363A); His6-SUMO (cleaved yes); made in house; host or cells: E. coli BL21-DE3-RILP
T2 sequence (Q9BVA6 103-458 E234G): T1 sequence (Q9BVA6 103-458 E234G)
Experimental: (§4) 1 μM of WT HYPE (final concentration) was preincubated with 10 μM DMSO-dissolved compound (final concentration) or equivalent volume of 100% DMSO at room temperature for 10 min. Reactions were run for 20 hr at 30° C. in the dark and began with the addition of 1 μM Fl-ATP (final concentration). Alternatively, E234G HYPE AMPylation reactions were run at 10 min due to its hyperactivity. All other parameters were held constant. All reactions were performed HTS Buffer (50 mM HEPES, 1 mM MgCl2, 0.1% Triton X-100, pH 7.50). All reactions were quenched with 4×SDS loading dye, boiled for 5 min at 95° C., and samples were run on 12% SDS-PAGE gels. Gels were imaged on a Typhoon 9500 FLA imager (General Electric) for fluorescence at 473 nm. Imaged gels were then stained with Coomassie Brilliant Blue, destained, and imaged for protein concentration. Where specified, 5 μM of T229A BiP (final concentration) was added to reactions before the addition of compound.

[4] = target: T1, E234G HYPE; assay: Fluorescence in-gel autoAMPylation assay with E234G HYPE and Fl-ATP; assay type: biochemical; details: 10 μM compound
Experimental: as §4

[5] = target: T2, E234G HYPE AMPylation of T229A BiP; assay: Radioactive in-gel T229A BiP AMPylation assay with E234G HYPE and α-32P-ATP; assay type: biochemical; details: 10 μM compound
Experimental: as §3

[6] = test system: HEK 293 cells; assay: MTT cell viability assay, HEK 293; assay type: cell-based, human; details: HEK 293, 10 μM, 48 hr
Experimental: as §1, §2

c1cn(-c2ccc(-c3nnc(-c4ccoc4)o3)cn2)cn1 [Compound I2.10]
cell viability ([1]; HeLa (so in the source), 50 μM): ~60% | cell viability ([1]; HeLa, up to 50 μM): 100% | inhibition of E234G HYPE autoAMPylation in gel [2]: bioactivity of I2.10 is mirrored | inhibition of T229A BiP AMPylation in gel [3]: confirm the inhibitory properties | inhibition of E234G HYPE autoAMPylation in gel [4]: consistently perturbs HYPE autoAMPylation | inhibition of T229A BiP AMPylation in gel [5]: inhibitory efficacy against BiP AMPylation was reproducible | cell viability [6]: ~80%
